Reference: patent US5043328A, “Formulations containing unsaturated fatty acids for the synthesis of prostaglandins and hydroxy-fatty acids in biological systems” (priority 1986, dated 1991)

Test: Storage of sodium arachidonate solution at room temperature for 6 weeks
Type: physicochemical
Details: water; solution without additions, after 6 weeks at room temperature; read-out: arachidonic acid content
Procedure: 50 mg of sodium arachidonate, 500 mg of bovine serum albumin and 500 mg of L-tyrosine are dissolved under sterile conditions in 10 ml of twice distilled water and, likewise under sterile conditions, stored in a brown bottle. 93.5% of the arachidonic acid originally present are recovered after 6 weeks' storage at room temperature, whereas the same sodium arachidonate solution without additions virtually no longer contain any arachidonic acid after this time (content <0.8). The stabilized solution prepared in this way

**Q.** Which remaining at 1008 h does the source give for `CCCCC/C=C\C/C=C\C/C=C\C/C=C\CCCC(=O)O` [sodium arachidonate] here?
**A.** < 0.8%
